Blank lines part the entries; values can stand above or below the compound they belong to. The source made the active and inactive calls. The calls are words filed in the database; no cut-off is given here.
What was measured:
[1] = Bioavailability in rat; assay type: ADME, organism-based; conditions: in vivo
[2] = Half life period was determined in rat; assay type: ADME, organism-based; conditions: in vivo
[3] = Plasma half life period was determined in human; assay type: ADME, organism-based
D(4) dopamine receptor = target: T1, D(4) dopamine receptor (Homo sapiens, UniProt P21917)
T1 sequence (P21917 whole entry): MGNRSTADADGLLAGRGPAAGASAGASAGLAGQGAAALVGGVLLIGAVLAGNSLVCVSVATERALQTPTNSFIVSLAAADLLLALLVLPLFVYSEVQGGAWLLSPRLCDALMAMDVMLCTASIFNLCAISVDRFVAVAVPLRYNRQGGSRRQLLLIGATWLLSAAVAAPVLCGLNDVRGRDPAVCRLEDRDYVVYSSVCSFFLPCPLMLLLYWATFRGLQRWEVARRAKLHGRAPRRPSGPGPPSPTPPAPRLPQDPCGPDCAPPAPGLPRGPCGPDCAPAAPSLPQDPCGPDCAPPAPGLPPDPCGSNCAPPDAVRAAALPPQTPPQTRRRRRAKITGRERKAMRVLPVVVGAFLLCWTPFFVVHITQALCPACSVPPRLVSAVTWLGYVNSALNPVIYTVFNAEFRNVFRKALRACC

[4] = Binding affinity at sodium channels
[5] = target: 5-hydroxytryptamine receptor 2A (Homo sapiens, UniProt P28223)
Sequence of 5-hydroxytryptamine receptor 2A (P28223 whole entry): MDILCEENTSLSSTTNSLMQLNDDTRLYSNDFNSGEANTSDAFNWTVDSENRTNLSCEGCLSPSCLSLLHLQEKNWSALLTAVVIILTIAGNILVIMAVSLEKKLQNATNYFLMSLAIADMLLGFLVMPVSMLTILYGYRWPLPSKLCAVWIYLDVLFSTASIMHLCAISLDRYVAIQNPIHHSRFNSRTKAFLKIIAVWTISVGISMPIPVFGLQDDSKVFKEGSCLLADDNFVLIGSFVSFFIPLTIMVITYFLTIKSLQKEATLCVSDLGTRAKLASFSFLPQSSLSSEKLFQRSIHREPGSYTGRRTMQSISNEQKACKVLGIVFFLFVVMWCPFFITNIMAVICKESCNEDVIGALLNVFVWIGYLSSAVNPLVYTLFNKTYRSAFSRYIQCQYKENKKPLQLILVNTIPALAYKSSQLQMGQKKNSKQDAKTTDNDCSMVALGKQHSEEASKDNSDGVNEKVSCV
Description: Binding affinity for human 5-hydroxytryptamine 2A receptor

Rodentia sp. [6] = experiment: Antipsychotic potential by blockade of apomorphine or amphetamine hyperactivity after oral administration; assay type: functional
Rodentia sp. [7] = experiment: EPS liability measured by blockade of stereotypy after oral administration of […] umol/kg; not effective; assay type: functional, organism-based
Rodentia sp. [8] = experiment: Extrapyramidal liability by induction of catalepsy after oral administration of […] umol/kg; not effective; assay type: functional, organism-based
Rodentia sp. [9] = experiment: Motor impairment by impaired spontaneous locomotor activity after oral administration of […] umol/kg; not effective; assay type: functional, organism-based
Rodentia sp. [10] = experiment: Antipsychotic potential by blockade of apomorphine disruption in PPI after (sc) administration; assay type: functional; conditions: read-out: MED
Rattus norvegicus [11] = experiment: Block of mescaline induced head twitch in rat at 6 hour after peroral administration of compound; assay type: functional; conditions: po
Rattus norvegicus [12] = experiment: Block of mescaline induced head twitch in rat at 1 hour after peroral administration of compound; assay type: functional; conditions: po
[13] = target: T2, Adrenergic receptor alpha-1 (Homo sapiens, UniProt P35348+P25100+P35368)
T2 sequence (P35348 whole entry): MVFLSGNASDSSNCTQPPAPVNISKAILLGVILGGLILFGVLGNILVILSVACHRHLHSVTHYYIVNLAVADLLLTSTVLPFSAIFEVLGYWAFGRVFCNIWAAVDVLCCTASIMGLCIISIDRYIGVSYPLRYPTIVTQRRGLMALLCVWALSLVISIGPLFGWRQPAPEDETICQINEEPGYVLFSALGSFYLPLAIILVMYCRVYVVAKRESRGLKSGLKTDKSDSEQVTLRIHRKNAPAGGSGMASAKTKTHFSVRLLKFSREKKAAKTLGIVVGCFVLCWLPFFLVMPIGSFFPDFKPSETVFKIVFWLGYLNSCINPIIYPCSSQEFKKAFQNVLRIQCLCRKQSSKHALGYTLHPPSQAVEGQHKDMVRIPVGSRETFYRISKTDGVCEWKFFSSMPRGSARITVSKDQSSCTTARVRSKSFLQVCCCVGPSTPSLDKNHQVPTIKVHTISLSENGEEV
T2 sequence (P25100 whole entry): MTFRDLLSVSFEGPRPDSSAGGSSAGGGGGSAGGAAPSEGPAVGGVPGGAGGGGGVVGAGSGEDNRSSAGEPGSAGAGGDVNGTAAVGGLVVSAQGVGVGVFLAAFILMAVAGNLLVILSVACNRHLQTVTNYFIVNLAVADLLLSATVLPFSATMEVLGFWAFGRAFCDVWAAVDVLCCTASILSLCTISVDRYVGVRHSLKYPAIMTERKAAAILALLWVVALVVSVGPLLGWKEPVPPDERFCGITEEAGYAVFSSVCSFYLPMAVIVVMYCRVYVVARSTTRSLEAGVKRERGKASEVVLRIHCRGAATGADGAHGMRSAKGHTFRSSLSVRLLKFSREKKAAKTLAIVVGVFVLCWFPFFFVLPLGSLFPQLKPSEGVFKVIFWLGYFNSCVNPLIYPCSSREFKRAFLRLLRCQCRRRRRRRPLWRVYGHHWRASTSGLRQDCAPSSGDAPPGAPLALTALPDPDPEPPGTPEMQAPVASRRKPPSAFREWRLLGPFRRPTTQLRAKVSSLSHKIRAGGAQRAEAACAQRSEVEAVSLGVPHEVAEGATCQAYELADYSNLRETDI
T2 sequence (P35368 whole entry): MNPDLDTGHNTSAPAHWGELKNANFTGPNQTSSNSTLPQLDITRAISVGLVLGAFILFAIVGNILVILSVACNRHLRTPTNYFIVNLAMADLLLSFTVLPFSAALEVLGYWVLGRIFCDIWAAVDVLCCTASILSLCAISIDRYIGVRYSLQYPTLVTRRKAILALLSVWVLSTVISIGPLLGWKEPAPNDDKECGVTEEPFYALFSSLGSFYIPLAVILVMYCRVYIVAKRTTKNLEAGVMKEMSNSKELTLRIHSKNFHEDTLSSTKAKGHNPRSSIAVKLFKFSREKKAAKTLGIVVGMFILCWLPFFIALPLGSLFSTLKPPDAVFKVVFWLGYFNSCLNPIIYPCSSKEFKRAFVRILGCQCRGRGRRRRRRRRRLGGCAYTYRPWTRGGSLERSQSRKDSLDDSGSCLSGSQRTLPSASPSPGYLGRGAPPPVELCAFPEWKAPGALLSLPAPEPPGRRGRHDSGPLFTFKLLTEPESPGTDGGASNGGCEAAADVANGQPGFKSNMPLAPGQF
Description: Binding affinity towards human alpha-1 adrenergic receptor

[14] = target: T3, Muscarinic acetylcholine receptor M1 (Homo sapiens, UniProt P11229)
T3 sequence (P11229 whole entry): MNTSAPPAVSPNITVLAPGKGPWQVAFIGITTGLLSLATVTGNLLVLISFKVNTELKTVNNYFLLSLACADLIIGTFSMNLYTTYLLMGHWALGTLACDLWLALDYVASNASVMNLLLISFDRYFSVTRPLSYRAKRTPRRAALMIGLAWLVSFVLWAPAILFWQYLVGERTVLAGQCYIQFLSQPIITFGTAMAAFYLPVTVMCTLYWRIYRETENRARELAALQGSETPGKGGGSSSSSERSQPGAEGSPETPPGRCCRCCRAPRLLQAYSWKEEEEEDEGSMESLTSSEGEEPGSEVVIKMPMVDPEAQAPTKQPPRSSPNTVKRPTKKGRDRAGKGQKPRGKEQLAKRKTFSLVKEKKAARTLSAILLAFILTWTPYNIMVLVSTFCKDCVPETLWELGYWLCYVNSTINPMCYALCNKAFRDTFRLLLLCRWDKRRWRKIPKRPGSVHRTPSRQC
Description: Binding affinity towards human M1 receptor.

[15] = target: T4, 5-hydroxytryptamine receptor 1A (Homo sapiens, UniProt P08908); experiment: Binding affinity towards human 5-hydroxytryptamine 1 receptor
T4 sequence (P08908 whole entry): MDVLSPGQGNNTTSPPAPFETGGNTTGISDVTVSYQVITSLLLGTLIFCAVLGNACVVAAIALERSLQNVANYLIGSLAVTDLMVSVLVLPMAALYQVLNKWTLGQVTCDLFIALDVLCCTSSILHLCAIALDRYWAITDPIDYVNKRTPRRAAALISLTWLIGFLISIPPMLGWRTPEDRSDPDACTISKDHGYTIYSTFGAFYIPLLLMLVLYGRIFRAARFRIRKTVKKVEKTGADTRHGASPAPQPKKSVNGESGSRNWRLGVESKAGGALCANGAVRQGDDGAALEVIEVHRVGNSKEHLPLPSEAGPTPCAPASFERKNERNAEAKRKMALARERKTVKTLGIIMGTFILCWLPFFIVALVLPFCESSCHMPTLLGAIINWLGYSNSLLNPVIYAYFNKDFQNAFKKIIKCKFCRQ

Rodentia sp. [16] = system: Rodentia sp.
Rodentia sp. [17] = system: Rodentia sp.; remark: listed apart in the source
Rodentia sp. [18] = system: Rodentia sp.; remark: listed apart in the source
Rodentia sp. [19] = system: Rodentia sp.; remark: listed apart in the source
Rodentia sp. [20] = system: Rodentia sp.; remark: listed apart in the source
Mus musculus [21] = experiment: Antagonizing amphetamine induced hyperlocomotion in mice was determined after (ip) administration; assay type: functional
Mus musculus [22] = experiment: Antagonizing amphetamine induced hyperlocomotion in mice was determined after […] administration; assay type: functional
[23] = Oral bioavailability was determined in rats and rhesus monkey; assay type: ADME, organism-based; conditions: eutheria, in vivo
[24] = Brain/Plasma AUC ratio was determined after oral administration of 50 mg/kg; assay type: ADME, organism-based; parameters: dose 50 mg/kg, route oral; conditions: brain and plasma
Rodentia sp. [25] = experiment: Antipsychotic potential by inhibition of conditioned avoidance responding after a (sc) administration 40 umol/kg; not effective; assay type: functional, organism-based
Rodentia sp. [26] = experiment: Motor impairment by impaired spontaneous locomotor activity after a (sc) administration; assay type: functional
Rodentia sp. [27] = experiment: Extrapyramidal liability by induction of catalepsy after a (sc) administration 80 umol/kg; not effective; assay type: functional, organism-based
Rodentia sp. [28] = experiment: Induction of catalepsy was determined after a (sc) administration; assay type: functional
Rodentia sp. [29] = experiment: Motor impairment by impaired rotarod performance after a (sc) administration; assay type: functional
Rodentia sp. [30] = experiment: Antipsychotic potential by blockade of apomorphine or amphetamine hyperactivity after a (sc) administration; assay type: functional
[31] = Cmax was determined in rat after oral administration of 3 mg/kg; assay type: ADME, organism-based; parameters: dose 3 mg/kg, route oral; conditions: in vivo
[32] = Percent inhibition of binding affinity for sodium channel at 10 uM
[33] = target: Voltage-gated L-type calcium channel (Homo sapiens, UniProt O60840+Q01668+Q13698+Q13936); experiment: Percent inhibition of binding to calcium channel at 10 uM; assay type: protein assay

SMILES: c1ccc(N2CCN(Cc3c[nH]c4ccccc34)CC2)cc1
IC50 [4]: > 10000 nM

SMILES: O=C(c1ccccc1)C1CCN(CCc2ccccc2)CC1
Ki [5]: 9.6 nM

SMILES: Fc1ccc(OC[C@@H]2CC[C@H]3CN(c4ncc(F)cn4)CCN3C2)cc1
ED50 (Rodentia sp. [6]): 13 mg/kg | NE (Rodentia sp. [7]): inactive | NE (Rodentia sp. [8]): inactive | NE (Rodentia sp. [9]): inactive | minimal effective dose (Rodentia sp. [10]): 18 mg/kg

SMILES: OC(c1ccccc1)C1CCN(CCc2ccccc2)CC1 (configuration not stated) [GLEMANSERIN]
Ki [5]: 2.5 nM

SMILES: COc1cccc([C@H](O)C2CCN(CCc3ccc(F)cc3)CC2)c1O
ED50 (Mus musculus [21]): 0.08 mg/kg | ED50 (Mus musculus [22]): 0.62 mg/kg | bioavailability [23]: < 3% | Kp [24]: < 0.13

SMILES: c1ccc2c(c1)CC(CN1CCN(c3ccc4c(c3)OCCO4)CC1)C2
NE (Rodentia sp. [25]): inactive | ED50 (Rodentia sp. [26]): 40 mg/kg | NE (Rodentia sp. [27]): inactive | ED50 (Rodentia sp. [28]): 80 mg/kg | ED50 (Rodentia sp. [29]): 66 mg/kg | ED50 (Rodentia sp. [30]): 9 mg/kg

SMILES: Cc1c(C2CCN(CCc3ccccc3)CC2)noc1-c1ccc(Cl)cc1
bioavailability [1]: 38% | half-life [2]: 2 h

SMILES: c1ccc(N2CCN(Cc3c[nH]c4ncccc34)CC2)cc1
Ki (D(4) dopamine receptor): 1.9 nM | Cmax [31]: 18 ng/mL

SMILES: Clc1ccccc1CCN1CCN(c2[nH]nc3c2CCc2ccccc2-3)CC1
Ki (D(4) dopamine receptor): 4.3 nM | bioavailability [1]: 31% | inhibition [32]: 33% | half-life [2]: 1 h | inhibition at 10 µM [33]: 58%

Now from value to compound, other results behind:

bioavailability [1]: 69% | half-life [2]: 1.1 h
SMILES: Cc1c(-c2ccccc2)[nH]c(=O)n1C1CCN(Cc2cccc(C#N)c2)CC1

half-life [3]: 6.6 h
SMILES: COc1cccc([C@H](O)C2CCN(CCc3ccc(F)cc3)CC2)c1OC [VOLINANSERIN]

Ki (D(4) dopamine receptor): 5.8 nM
SMILES: O=c1ccc2ccc(NCCNc3ccccc3)cc2o1

Ki (D(4) dopamine receptor): 2.9 nM
SMILES: O=S1(=O)c2cccc3cccc(c23)N1CCCN1CCN(c2ccc(F)cc2)CC1 [FANANSERIN]
ED50 (Rattus norvegicus [11]): 2.4 mg/kg | ED50 (Rattus norvegicus [12]): 0.99 mg/kg

Ki [5]: 126 nM
SMILES: OC(c1ccc(F)cc1)C1CCN(CCCCc2ccccc2)CC1 (configuration not stated)

Ki [13]: 1.9 nM | Ki [14]: > 10000 nM | Ki [15]: 37 nM
SMILES: O=C1Cc2cc(CCN3CCN(c4nsc5ccccc45)CC3)c(Cl)cc2N1 [ZIPRASIDONE]

Ki [5]: 5.3 nM
SMILES: O=C(c1ccc(F)cc1)C1CCN(CCCCc2ccccc2)CC1

Ki (D(4) dopamine receptor): 6.8 nM
SMILES: NS(=O)(=O)c1ccc(N2CCN(CC[C@@H]3OCCc4ccccc43)CC2)cc1 [SONEPIPRAZOLE]
NE (Rodentia sp. [16]): inactive | NE (Rodentia sp. [17]): inactive | NE (Rodentia sp. [18]): inactive | NE (Rodentia sp. [19]): inactive | NE (Rodentia sp. [20]): inactive | minimal effective dose (Rodentia sp. [10]): 30 mg/kg

Ki (D(4) dopamine receptor): 3.5 nM
SMILES: O=C(c1ccc(F)cc1)C1CCN(CCn2c(=O)[nH]c3ccccc3c2=O)CC1 [KETANSERIN]

From ChEMBL document CHEMBL1134342, “Current and novel approaches to the drug treatment of schizophrenia” (J Med Chem, 2001)
